This assay concerns the target T1, recombinant human NK1 receptors (Homo sapiens, UniProt P25103).
T1 construct: expressed in transfected cells; membrane preparation
Kind of assay: NK1 receptor filtration binding assay, displacement of [3H]-Substance P. The note with it: displacement of [3H]-substance P from recombinant human NK1 receptors expressed in CHO cell membranes; average of at least two determinations; read-out: pKi (negative logarithm of the inhibition constant Ki) (converted). On the procedure:
NK1-receptor binding affinity has been determined in vitro in filtration binding assay by measuring the compounds' ability to displace [^3H]-Substance P (SP) from recombinant human NK1 receptors stably expressed in Chinese Hamster Ovary (CHO) cell membranes prepared by using a modification of the method described by Beattie D. T. et al. (Br. J. Pharmacol, 116:3149-3157, 1995).
Briefly, ligand binding was performed in 0.4 ml of 50 mM HEPES, pH 7.4, containing 3 mM MnCl2, 0.02% BSA, 0.5 nM [^3H]-Substance P (30-56 Ci/mmol Amersham), a final membrane protein concentration of 30-50 μg/ml, and the test compounds. The incubation proceeded at room temperature for 40 min and was stopped by filtration. Non-specific binding was determined using excess of substance P (1 μM) and represents about 6-10% of the total binding. IC50 values of each compound were determined by an 8-point 10×-dilution inhibition curve. pKi values were calculated using the KD of [^3H]-Substance P determined in a separate experiment.
The affinity of the compound of the invention for NK1 receptor was determined using the NK1 receptor binding affinity method measuring in vitro the compounds' ability to displace [3H]—substance P (SP) from recombinant human NK1 receptors expressed in Chinese Hamster Ovary (CHO) cell membranes. […]
(In general: Displacement assays read how much labelled ligand stays bound in the presence of the test substance.)

T1 sequence (P25103 whole entry): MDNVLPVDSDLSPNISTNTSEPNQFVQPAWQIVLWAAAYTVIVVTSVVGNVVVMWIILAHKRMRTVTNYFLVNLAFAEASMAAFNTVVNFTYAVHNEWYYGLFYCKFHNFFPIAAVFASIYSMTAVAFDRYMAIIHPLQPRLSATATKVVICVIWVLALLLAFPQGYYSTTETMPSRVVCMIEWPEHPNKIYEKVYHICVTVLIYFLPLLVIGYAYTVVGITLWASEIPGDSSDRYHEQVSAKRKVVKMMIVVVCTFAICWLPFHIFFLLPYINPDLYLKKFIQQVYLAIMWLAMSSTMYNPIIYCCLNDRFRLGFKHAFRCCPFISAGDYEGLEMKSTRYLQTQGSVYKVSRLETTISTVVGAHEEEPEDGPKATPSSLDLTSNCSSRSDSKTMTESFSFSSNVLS

With `CC(=O)NCCN[C@H]1CCN(C(=O)N(C)[C@H](C)c2cc(C(F)(F)F)cc(C(F)(F)F)c2)[C@@H](c2ccc(F)cc2C)C1` [Example 1, (2R,4S)-4-{[2-(acetylamino)ethyl]amino}-N-{(1R)-1-(3,5-bis(trifluoromethyl)phenyl)ethyl}-2-(4-fluoro-2-methylphenyl)-N-methyl-1-piperidinecarboxamide], the inhibitory constant (Ki) (as a rule, a measure of affinity in units of concentration, obtained from inhibition or displacement) was 0.02 nM.

The record behind these values is patent US20080249132A1, “Piperidine Carboxyamide Derivate Suitable as Tachykinin Receptor Antagonist” (priority 2005, published 2008).
